Assay results published in publication PMC4358773, “Highly specific ubiquitin-competing molecules effectively promote frataxin accumulation and partially rescue the aconitase defect in Friedreich ataxia cells” (Neurobiology of Disease, 2015).

Biological target: T1, frataxin precursor (aa 1-210) (Homo sapiens, UniProt Q16595)
T1 construct: gene FXN; full-length precursor, aa 1-210, recombinant, expressed and purified by GenScript
T1 sequence (Q16595 1-210): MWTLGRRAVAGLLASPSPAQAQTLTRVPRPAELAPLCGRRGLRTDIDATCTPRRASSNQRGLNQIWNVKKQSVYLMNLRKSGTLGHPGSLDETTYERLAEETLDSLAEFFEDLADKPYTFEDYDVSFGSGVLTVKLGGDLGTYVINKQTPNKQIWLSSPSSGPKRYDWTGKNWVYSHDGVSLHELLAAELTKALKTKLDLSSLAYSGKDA
Assay: intrinsic Trp fluorescence quenching, hyperbolic isotherm
Details: 20 °C; 2 μM protein; ligand 0.5-25 μM; half-saturation binding constant; read-out: L1/2

Structure (SMILES) | Kd
C/C(=N\NC(=O)c1ccc(C)cc1C)c1ccc2c(c1)Nc1ccccc1S2 [UCM53] | 2900 ± 300 nM
C/C(=N\NC(=O)c1ccccc1)c1ccc2c(c1)Nc1ccccc1S2 [UCM108] | 2300 ± 300 nM
